US12221436B2, “Anthranilamides, their use as insecticide and processes for preparing the same” (PI INDUSTRIES LTD., priority 2018, dated 2025)

Experiments:
Format in all cases: in vivo
Myzus persicae = test: Example E: Myzus persicae, leaf dip method (capsicum leaves); conditions: foliar, third instar nymphs, 72 h after release, dead and moribund combined, read-out: percent mortality
Method: (§1) Test solutions were prepared according to the procedure described herein below (500 PPM):
(§2) • 1. Eppendorf Vortex mixer (ThermoMixer C) and 1.5 mL Eppendorf tubes • 2. Beaker—100 mL • 3. Micro-pipette Reagents: • 1. Surfactant Solution • 2. De-mineralized (DM) Water Procedure: • 1. Weigh 10 mg of the compound of the present invention to be tested in an Eppendorf Tube. • 2. Add 200 mg of the Surfactant Solution into the tube. • 3. Fix the tube in Eppendorf Vortex mixer and start vortexing at 2000 rpm. • 4. Mix on Vortex mixer for 30 min. After 30 min, observe the sample over a microscope at 400× resolution. • 5. Add 1.0 mL DM water into the tube, close the cap, shake the tube thoroughly and transfer the contents, along with the beads, into a beaker. • 6. To rinse the tube, add another 1.0 mL of DM water into the tube, close the cap, shake well and transfer this into the same beaker. • 7. Repeat […] one more time so that the tube is rinsed well and all the compound of the present invention is transferred to the beaker. • 8. Add 16.8 mL of DM water into the beaker and stir well. • 9. Immediately use this sample for biological testing. • 10. Further dilutions can be prepared by taking appropriate quantity of the aliquot of Step 8, immediately after stirring, and diluting as per requirement. The sample solution must be well mixed just before biological testing.
Leaf dip method was used for screening, wherein the required quantity of the compounds were weighed and dissolved in the test solution into the tube and vortex at 2000 rpm with Zirconia beads for 90 min and for proper mixing, then mixed with 0.01% Triton-X solution to get the desired test concentration. Capsicum leaves were dipped in the solution for 10 seconds, shade dried for 20 min and then leaves were kept in glass units with petiole dipped in water. Known numbers of third instar nymphs were released and were kept in the plant growth chamber at a temperature of 25° C. and Relative Humidity of 70%. Observations on dead, moribund and live nymphs were recorded at 72 h after the release. Percent mortality was calculated by combining dead and moribund nymphs. The following compound numbers

Helicoverpa armigera = test: Example A: Helicoverpa armigera, diet incorporation method; conditions: third instar larvae, 96 h after release, dead and moribund combined, read-out: percent mortality
Method: as §1, §2
(§3) Diet incorporation method was used, in which the semi-synthetic diet was incorporated into the test solution when the temperature is approximately 50° C. in the bioassay containers and stirred thoroughly for properly mixing and then was allowed to cool for 30 min. The solidified diet was cut into equal pieces, and then each piece was transferred in one cell in Bio-assay trays. A single third instar starved larva was released into each of these cells of bioassay trays and the tray was covered with the lid. The bio-assay trays were kept under laboratory conditions at a temperature of 25° C. and Relative Humidity of 70%. Observations on dead, moribund and live larvae were recorded at 96 h after the release of larvae. Percent mortality was calculated by combining dead and moribund larvae. The following compound numbers

Spodoptera litura = test: Example B: Spodoptera litura, diet incorporation method; conditions: third instar larvae, 96 h after release, dead and moribund combined, read-out: percent mortality
Method: as §1, §2
as §3, with “which” for “which the”, “solutions” for “solution”

Plutella xylostella = test: whole plant or invertebrate; conditions: in Brassica oleracea, foliar, second instar larvae, 72 h after release, dead and moribund combined, read-out: percent mortality
Method: as §1, §2
Leaf dip method was used for screening, wherein the required quantity of the compounds were weighed and dissolved in the test solution into the tube and vortex at 2000 rpm with Zirconia beads for 90 min for proper mixing, then mixed with 0.01% Triton-X solution to get the desired test concentration. and Cabbage leaves were dipped in the solution for 10 seconds, shade dried for 20 min and then transferred to bioassay trays. Single second instar larvae were released into each cell and the tray was covered with lid. The bio-assay trays were kept under laboratory conditions at a temperature of 25° C. and Relative Humidity of 70%. Observations on dead, moribund and live larvae were recorded at 72 h after the release. Percent mortality was calculated by combining dead and moribund larvae. The following compound numbers

Structure (SMILES): CC(C)(C)NC(=O)c1cc(Cl)cc(Br)c1NC(=O)c1cc(OC2CSC2)nn1-c1ncccc1Cl [Compound 45, N-(2-bromo-6-(tert-butylcarbamoyl)-4-chlorophenyl)-1-(3-chloropyridin-2-yl)-3-(thietan-3-yloxy)-1H-pyrazole-5-carboxamide]
- mortality at 300 ppm (Myzus persicae): > 50%

Structure (SMILES): Cc1cc2ccnn2c(C(=O)NCC2CC2)c1NC(=O)c1cc(N2CC(F)(F)C2)nn1-c1ncccc1Cl [Compound 78, 6-(1-(3-chloropyridin-2-yl)-3-(3,3-difluoroazetidin-1-yl)-1H-pyrazole-5-carboxamido)-N-(cyclopropylmethyl)-5-methylpyrazolo[1,5-a]pyridine-7-carboxamide]
- mortality at 300 ppm (Helicoverpa armigera): > 70%
- mortality at 300 ppm (Spodoptera litura): > 70%
- mortality at 300 ppm (Plutella xylostella): > 70%

Structure (SMILES): CNC(=O)c1c(NC(=O)c2cc(N3CC(F)(F)C3)nn2-c2ncccc2Cl)c(C)cc2ccnn12 [Compound 79, 6-(1-(3-chloropyridin-2-yl)-3-(3,3-difluoroazetidin-1-yl)-1H-pyrazole-5-carboxamido)-N,5-dimethylpyrazolo[1,5-a]pyridine-7-carboxamide]
- mortality at 300 ppm (Helicoverpa armigera): > 70%
- mortality at 300 ppm (Spodoptera litura): > 70%
- mortality at 300 ppm (Plutella xylostella): > 70%

Structure (SMILES): Cc1cc2ccnn2c(C(=O)NCC2CC2)c1NC(=O)c1cc(OC2CSC2)nn1-c1ncccc1Cl [Compound 80, 6-(1-(3-chloropyridin-2-yl)-3-(thietan-3-yloxy)-1H-pyrazole-5-carboxamido)-N-(cyclopropylmethyl)-5-methylpyrazolo[1,5-a]pyridine-7-carboxamide]
- mortality at 300 ppm (Helicoverpa armigera): > 70%
- mortality at 300 ppm (Spodoptera litura): > 70%
- mortality at 300 ppm (Plutella xylostella): > 70%

Structure (SMILES): CCNC(=O)c1c(NC(=O)c2cc(N3CC(F)(F)C3)nn2-c2ncccc2Cl)c(C)cc2ccnn12 [Compound 84, 6-(1-(3-chloropyridin-2-yl)-3-(3,3-difluoroazetidin-1-yl)-1H-pyrazole-5-carboxamido)-N-ethyl-5-methylpyrazolo[1,5-a]pyridine-7-carboxamide]
- mortality at 300 ppm (Spodoptera litura): > 70%

Structure (SMILES): CONC(=O)c1c(NC(=O)c2cc(N3CC(F)(F)C3)nn2-c2ncccc2Cl)c(C)cc2ccnn12 [Compound 85, 6-(1-(3-chloropyridin-2-yl)-3-(3,3-difluoroazetidin-1-yl)-1H-pyrazole-5-carboxamido)-N-methoxy-5-methylpyrazolo[1,5-a]pyridine-7-carboxamide]
- mortality at 300 ppm (Helicoverpa armigera): > 70%
- mortality at 300 ppm (Plutella xylostella): > 70%

Structure (SMILES): C=CCNC(=O)c1c(NC(=O)c2cc(N3CC(F)(F)C3)nn2-c2ncccc2Cl)c(C)cc2ccnn12 [Compound 87, N-allyl-6-(1-(3-chloropyridin-2-yl)-3-(3,3-difluoroazetidin-1-yl)-1H-pyrazole-5-carboxamido)-5-methylpyrazolo[1,5-a]pyridine-7-carboxamide]
- mortality at 300 ppm (Spodoptera litura): > 70%

Structure (SMILES): CONC(=O)c1cc(Cl)cc(Br)c1NC(=O)c1cc(OC2CSC2)nn1-c1ncccc1Cl [Compound 91, N-(2-bromo-4-chloro-6-(methoxycarbamoyl)phenyl)-1-(3-chloropyridin-2-yl)-3-(thietan-3-yloxy)-1H-pyrazole-5-carboxamide]
- mortality at 300 ppm (Myzus persicae): > 50%

Structure (SMILES): C=CCNC(=O)c1cc(Cl)cc(Br)c1NC(=O)c1cc(OC2CSC2)nn1-c1ncccc1Cl [Compound 92, N-(2-(allylcarbamoyl)-6-bromo-4-chlorophenyl)-1-(3-chloropyridin-2-yl)-3-(thietan-3-yloxy)-1H-pyrazole-5-carboxamide]
- mortality at 300 ppm (Myzus persicae): > 50%

Structure (SMILES): C=CCNC(=O)c1cc(Cl)cc(C)c1NC(=O)c1cc(OC2CSC2)nn1-c1ncccc1Cl [Compound 98, N-(2-(allylcarbamoyl)-4-chloro-6-methylphenyl)-1-(3-chloropyridin-2-yl)-3-(thietan-3-yloxy)-1H-pyrazole-5-carboxamide]
- mortality at 300 ppm (Myzus persicae): > 50%

Structure (SMILES): CCCNC(=O)c1c(NC(=O)c2cc(OC3CSC3)nn2-c2ncccc2Cl)c(C)cc2ccnn12 [Compound 108, 6-(1-(3-chloropyridin-2-yl)-3-(thietan-3-yloxy)-1H-pyrazole-5-carboxamido)-5-methyl-N-propylpyrazolo[1,5-a]pyridine-7-carboxamide]
- mortality at 300 ppm (Plutella xylostella): > 70%

Structure (SMILES): Cc1cc(Cl)cc(C(=O)NC(C)C)c1NC(=O)c1cc(OC2C[S+]([O-])C2)nn1-c1ncccc1Cl (stereo not drawn) [Compound 117, N-(4-chloro-2-(isopropylcarbamoyl)-6-methylphenyl)-1-(3-chloropyridin-2-yl)-3-((1-oxidothietan-3-yl)oxy)-1H-pyrazole-5-carboxamide]
- mortality at 300 ppm (Myzus persicae): > 50%

Structure (SMILES): Cc1cc(Cl)cc(C(=O)NC2CC2)c1NC(=O)c1cc(OC2C[S+]([O-])C2)nn1-c1ncccc1Cl (stereo not drawn) [Compound 128, N-(4-chloro-2-(cyclopropylcarbamoyl)-6-methylphenyl)-1-(3-chloropyridin-2-yl)-3-((1-oxidothietan-3-yl)oxy)-1H-pyrazole-5-carboxamide]
- mortality at 300 ppm (Myzus persicae): > 50%

Structure (SMILES): Cc1cc(Cl)cc(C(=O)NCC2CC2)c1NC(=O)c1cc(OC2C[S+]([O-])C2)nn1-c1ncccc1Cl (stereo not drawn) [Compound 129, N-(4-chloro-2-((cyclopropylmethyl)carbamoyl)-6-methylphenyl)-1-(3-chloropyridin-2-yl)-3-((1-oxidothietan-3-yl)oxy)-1H-pyrazole-5-carboxamide]
- mortality at 300 ppm (Myzus persicae): > 50%

Structure (SMILES): O=C(NCC(F)(F)F)c1cc(Cl)cc(Cl)c1NC(=O)c1cc(OC2CSC2)nn1-c1ncccc1Cl [Compound 132, 1-(3-chloropyridin-2-yl)-N-(2,4-dichloro-6-((2,2,2-trifluoroethyl)carbamoyl)phenyl)-3-(thietan-3-yloxy)-1H-pyrazole-5-carboxamide]
- mortality at 300 ppm (Myzus persicae): > 50%

Structure (SMILES): CCNC(=O)c1c(NC(=O)c2cc(OC3CSC3)nn2-c2ncccc2Cl)c(C)cc2ccnn12 [Compound 137, 6-(1-(3-chloropyridin-2-yl)-3-(thietan-3-yloxy)-1H-pyrazole-5-carboxamido)-N-ethyl-5-methylpyrazolo[1,5-a]pyridine-7-carboxamide]
- mortality at 300 ppm (Plutella xylostella): > 70%

Structure (SMILES): Cc1cc2ccnn2c(C(=O)NC2CC2)c1NC(=O)c1cc(OC2CSC2)nn1-c1ncccc1Cl [Compound 138, 6-(1-(3-chloropyridin-2-yl)-3-(thietan-3-yloxy)-1H-pyrazole-5-carboxamido)-N-cyclopropyl-5-methylpyrazolo[1,5-a]pyridine-7-carboxamide]
- mortality at 300 ppm (Spodoptera litura): > 70%

Structure (SMILES): Cc1cc2ccnn2c(C(=O)NC(C)C2CC2)c1NC(=O)c1cc(OC2CSC2)nn1-c1ncccc1Cl (stereo not drawn) [Compound 139, 6-(1-(3-chloropyridin-2-yl)-3-(thietan-3-yloxy)-1H-pyrazole-5-carboxamido)-N-(1-cyclopropylethyl)-5-methylpyrazolo[1,5-a]pyridine-7-carboxamide]
- mortality at 300 ppm (Helicoverpa armigera): > 70%
- mortality at 300 ppm (Spodoptera litura): > 70%

Structure (SMILES): COCCNC(=O)c1c(NC(=O)c2cc(OC3CSC3)nn2-c2ncccc2Cl)c(C)cc2ccnn12 [Compound 156, 6-(1-(3-chloropyridin-2-yl)-3-(thietan-3-yloxy)-1H-pyrazole-5-carboxamido)-N-(2-methoxyethyl)-5-methylpyrazolo[1,5-a]pyridine-7-carboxamide]
- mortality at 300 ppm (Helicoverpa armigera): > 70%
